Assay results from patent publication US12472207B2, “Anti-inflammatory compositions and methods” (RR Medsciences Pty Ltd., priority 2019, dated 2025).

What was measured:
human skin explants [1] = assay: UV-induced 8-nitroguanine (8NGO) in human skin explants (immunohistochemistry); format: cell-based; details: either protocol
Text: FIG. 6. (A) Representative images of immunohistochemical staining of 8NGO in human explants from isotype control and sham exposed explants. (B) Representative images of immunohistochemical staining of 8NGO in human skin explants from UV-exposed explants. (C-D) Analysis of 8NGO in epidermis (C) and dermis (D) of skin explants. Bars indicate significant differences **** p<0.001; NS=not significant between data sets (n=3 explants per data point).
(§1) Exposure of skin to UV radiation induces oxidative stress via a dramatic increase in ROS (see, Dunaway et al., 2018). In this section of the research work we measured oxidative DNA damage caused by UV-induced cyclobutene pyrimidine dimers (CPD), oxidative DNA damage resulting from UV-induced 8-oxo-guanine (8-oxoG), and nitrosative DNA damage caused by 8-nitroguanine (8NG) (Mason et al., 2013). Typically, if these DNA lesions are not adequately repaired, they lead to mutations which may then lead to the development of skin tumours (Mason et al., 2013). Our primary objective here was to determine if RM191A, when applied topically to ex vivo human skin, reduced UV-induced DNA damage.
(§2) The same treatment protocols were also followed for a placebo gel which contained no RM191A. […]

human skin explants [2] = assay: UV-induced CPD in human skin explants (immunohistochemistry); format: cell-based; details: epidermis; treatment of UV-exposed explants (post-treatment, RM191A Gel 2); vs UV-exposed controls
Text: FIG. 4: RM191A protects against UV-induced oxidative stress. (A) Representative images of immunohistochemical staining of CPDs in human explants from isotype control and sham exposed explants. There was little staining in the isotype control. […] (B) Representative images of immunohistochemical staining of CPDs in human skin explants from UV-exposed explants. (C) Analysis of CPD in epidermis of skin explants. Bars indicate significant differences **** p<0.001; NS=not significant between data sets (n=3 explants per data point).
as §1, §2

human skin explants [3] = assay: UV-induced 8-oxoG in human skin explants (immunohistochemistry); format: cell-based; details: epidermis; treatment of UV-exposed explants (post-treatment, RM191A Gel 2); vs UV-exposed controls
Text: FIG. 5. (A) Representative images of immunohistochemical staining of 8-oxoG in human explants from isotype control and sham exposed explants. (B) Representative images of immunohistochemical staining of 8-oxoG in human skin explants from UV-exposed explants. (C-D) Analysis of 8-oxoG in (C) epidermis and (D) dermis of skin explants. Bars indicate significant differences **** p<0.001; NS=not significant between data sets (n=3 explants per data point).
as §1, §2

[4] = NBT superoxide scavenging (SOD-like activity) assay; format: biochemical; details: for Absorbance 560 nm Ave: SOD primary data
Text: The purpose of these experiments was to measure the Superoxide Dismutase-like (SOD-like) activity of the copper ion complex (RM191A) depicted in the Examples below as “Cu”. The inventors employed a modified version of the method described by Beauchamp and Fridovich (see, Beauchamp et al. 1971). The reason for this modification was to create a reaction mixture that successfully generates known quantities of the O2^− free radical but does so at a pH at which the copper ion complex is stable—specifically in the range pH 6.5-7.8.
Because of the instability of its substrate, all available chemical assays of SOD and SOD-like activity are necessarily indirect and depend upon its ability to scavenge O2^− from reaction mixtures and thus to inhibit reactions caused by O2^−.
NitroBlue Tetrazolium (NBT) was selected as an indicator to measure and compare the superoxide scavenging activities of both bovine SOD and the copper ion complex (“RM191A,” the preparation of which is described in detail in International PCT Patent Publication No. WO/AU2016/201524), This assay utilizes photochemical events to generate O2^− in a sodium tetraborate buffered solution of acetone and isopropanol which is then irradiated by high energy UV light at 254 nm (Mercury Vapour Lamp) to create O2^− in the solution.
SOD and SOD-like substances inhibit the formation of the blue formazan by neutralising the superoxide free radicals as they are forming. Blue formazan has a characteristic UV absorbance at 560 nm. The quantitation of the UV absorbance of the reaction solution at 560 nm is a direct measure the SOD and SOD-like activity of a substance.
UV absorbances of the reaction solutions were measured at 560 nm following irradiation with UV light to determine the superoxide free radical scavenging activity in situ of both bovine SOD and the copper ion complex (RM191A).
Each reaction solution consists of 0.5 ml of 200 μmol/L NBT in borate buffer (pH=7.1) and 0.5 ml of a 200 μmol/L solution of the test compound in 5.0 mL of 5 mol/L isopropanol.
To each reaction vessel 15 mg acetone (20 μL) as added to begin the reaction. Each vessel was then irradiated with UV light at 254 nm (mercury vapour lamp) for 1 minute.
The reaction solution was then transferred into UV Vis cells and the absorbance at 560 nm was measured.
A number of test solution concentrations were assayed by adding, 1.0, 1.25, 1.5, 1.75, 2.0 mL of a 200 μmol/L solution of the test compound and bringing the total volume to 5.0 mL with 5 mol/L isopropanol.
The method uses a Cu control to remove the minor background copper absorbance.

Compound | 8NGO vs UV-exposed controls (human skin explants [1]) | decrease in CPD (human skin explants [2]) | decrease in nuclear 8-oxoG (human skin explants [3]) | Absorbance (Table 5) ([4]; 1.6 μM) | Absorbance (Table 5) ([4]; 20 μM) | Absorbance (Table 5) ([4]; 40 μM) | Absorbance (Table 5) ([4]; 80 μM) | Absorbance 560 nm Ave ([4]; Molarity 0.0000016) | Absorbance 560 nm Ave ([4]; Molarity 0.00002) | Absorbance 560 nm Ave ([4]; Molarity 0.00004) | Absorbance 560 nm Ave ([4]; Molarity 0.00008) | Absorbance 560 nm Ave ([4]; Molarity 0.0001) | Absorbance 560 nm Ave ([4]; Molarity 0.00012) | Absorbance 560 nm Ave ([4]; Molarity 0.00014)
C=C1/C(=C\C=C2/CCC[C@]3(C)[C@@H]([C@H](C)CCCC(C)(C)O)CC[C@@H]23)C[C@@H](O)C[C@@H]1O [1,25D, 1,25-dihydroxy vitamin D3] | significantly decreased | 30% | 27% | – | – | – | – | – | – | – | – | – | – | –
SOD: bovine superoxide dismutase used as comparator | – | – | – | 0.2988 | 0.2879 | 0.2348 | 0.332 | 0.2988 | 0.2879 | 0.2348 | 0.332 | 0.3163 | 0.3215 | 0.3555
